Experimental data reported in US20080085315A1, “Amorphous ezetimibe and the production thereof” (priority 2006, published 2008).

Assays:
[1] = cited from earlier work
[2] = Pharmacokinetics in fasted male Sprague Dawley rats, single dose; assay type: in vivo; settings: rat, po, analyte EZE in plasma, single dose 100 mg/kg crystalline EZE or equivalent amount of amorphous EZE
Description: The pharmacokinetics of crystalline EZE and the amorphous 1 EZE: 3 PVP+2% SLS spray dried powder were studied in male Sprague Dawley rats in the fasted state. Six rats were single-dosed with either 100 mg/kg crystalline EZE or an equivalent amount of the amorphous EZE of Example 2.

Cmax [2]: 5.1 ng/mL | Tmax [2]: 8 h | AUC(0-t) ([2]; read-out: AUC0-24 h): 64.2 ng·h/mL
Structure (SMILES): O=C1[C@H](CC[C@H](O)c2ccc(F)cc2)[C@@H](c2ccc(O)cc2)N1c1ccc(F)cc1 [crystalline, 1-(4-fluorophenyl)-3(R)-[3-(4-fluorophenyl)-3(S)-hydroxypropyl]-4(S)-(4-hydroxyphenyl)-2-azetidinone]
solubility in water [1]: insoluble in water
